PMC7403315, “Cyclic peptide FXII inhibitor provides safe anticoagulation in a thrombosis model and in artificial lungs” (Nature Communications, 2020)
Where “and” joins values, the source holds several entries; their conditions need not be identical. Identical values can stand only once. Starred links: 1 amine or outer side, 2 acyl side, 3 side chain; linkers in the order of their positions; H or OH if unused. Positions of bridges follow the written chain, without caps; N, C: chain ends. Non-standard residues stand in square brackets, D forms with d. Residues, ends and D or L forms follow the SMILES beside them. TATA = O=C(CC[*:1])N1CN(C(=O)CC[*:2])CN(C(=O)CC[*:3])C1; Phe(4-F) = N[C@@H](Cc1ccc(F)cc1)C(=O)O; β3hR = N=C(N)NCCC[C@H](N)CC(=O)O

Legend:
factor VIIa = target: T1, factor VIIa (Homo sapiens, UniProt P08709); assay: Specificity profiling, residual protease activity; type: biochemical
T1 construct: (Molecular Innovations) 0.05 nM, factor VIIa (Haematologic Technologies) 50 nM, factor Xa; purchased Haematologic Technologies
T1 sequence (P08709 213-466 limits assumed): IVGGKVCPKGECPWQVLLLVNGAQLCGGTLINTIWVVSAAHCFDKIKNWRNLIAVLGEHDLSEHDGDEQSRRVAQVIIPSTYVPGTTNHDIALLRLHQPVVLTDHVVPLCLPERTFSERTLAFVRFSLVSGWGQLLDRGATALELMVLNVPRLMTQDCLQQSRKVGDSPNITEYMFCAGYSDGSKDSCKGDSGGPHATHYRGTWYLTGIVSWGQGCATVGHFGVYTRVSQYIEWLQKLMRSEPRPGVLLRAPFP
T1 sequence (P08709 61-212 limits assumed): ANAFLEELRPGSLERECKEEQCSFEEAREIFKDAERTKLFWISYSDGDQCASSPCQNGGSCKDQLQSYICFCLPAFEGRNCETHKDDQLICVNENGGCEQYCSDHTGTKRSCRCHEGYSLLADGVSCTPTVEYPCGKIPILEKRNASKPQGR
Method: Protease inhibition assays
The inhibitory activity of peptides was determined by measuring the residual protease activity with a fluorogenic substrate. The assay was performed in buffer containing 10 mM Tris-Cl, pH […]
1% (v/v) DMSO in a volume of 150 µl. […]
HFXIIAB) were used at final concentrations of 0.4 nM. The reaction was pipetted as follows: 50 µl of bicyclic peptide in assay buffer were added to 50 µl of FXIIa in assay buffer and incubated for 10 minutes at 25°C before 50 µl of 150 µM fluorogenic substrate in assay buffer were added to measure the residual protease activity with an Infinite M200Pro fluorescence plate reader (excitation at 368 nm, emission at 467 nm; Tecan) for a period of 30 minutes with a read every minute at 25°C. The Tecan software i-control (version 1.1) was used for data analysis. Stock solutions of 1 mM bicyclic peptide were prepared by either dissolving the unpurified cyclization reaction with water or by dissolving purified and lyophilized peptide in water. The bicyclic peptides were serially diluted two-fold using assay buffer. Sigmoidal curves were fitted to the data using the following dose response equation (1), wherein x = peptide concentration, y = % protease activity, and p = Hill slope. IC50 values were derived from the fitted curve.
The inhibition constants (Ki) were calculated according to the equation of Cheng and Prusoff, Ki = IC50/(1+([S]0/Km), wherein IC50 is the functional strength of the inhibitor, [S]0 is the total substrate concentration, and Km is the Michaelis-Menten constant. […]
For testing the specificity of the bicyclic peptides, the following final concentrations of human serine proteases were used: tPA (Molecular Innovations) 7.5 nM, uPA (Molecular Innovations) 1.5 nM, factor XIa (Innovative Research) 6 nM, plasma kallikrein (Innovative Research) 0.25 nM, thrombin (Molecular Innovations) 1 nM, plasmin (Molecular Innovations) 2.5 nM, trypsin (Molecular Innovations) 0.05 nM, factor VIIa (Haematologic Technologies) 50 nM, factor Xa […]
(Haematologic Technologies) 6 nM, and activated protein C (APC) 5 nM. Two-fold dilutions of the peptide were prepared that ranged from 0.04 to 40 µM. The following fluorogenic substrates were used at a final concentration of 50 µM: Z-Phe-Arg-AMC (Bachem) for plasma kallikrein; Boc-Phe-Ser-Arg-AMC (Bachem) for factor XIa; Z-Gly-Gly-Arg-AMC (Bachem) for tPA, uPA, thrombin, and trypsin; H-D-Val-Leu-Lys-AMC (Bachem) for plasmin; and D-Phe-Pro-Arg-ANSNH-C4H9 (Haematologic Technologies) for FVIIa and FXa. For APC, the chromogenic substrate pyroGlu-Pro-Arg-pNA (S2366) was used at a concentration of 400 µM. […]

[1] = Pharmacokinetic study in pigs (plasma concentration by LC-MS); type: in vivo, pig
Method: Swiss large white pigs, both sexes, 3–4 months old (30 ± 5 kg) were anesthetized and prepared following procedures used to study myocardial ischemia/reperfusion injury. In this procedure, the ACT is monitored and 2500 IU of heparin are injected when ACT values fall below 180 s. Pigs were injected intravenously with 4 mg kg^−1 of FXII900 dissolved in 1 ml PBS, pH 7.4. […] The concentration of FXII900 in the plasma samples was determined by LC-MS as described below.
The concentration of FXII900 in the plasma samples was quantified based on peak intensities of total ion current (TIC) chromatograms acquired by LC-MS (LCMS-2020, Shimadzu). To 15 μl of plasma sample, 1 μM of internal standard peptide and 5 μl of 6 M guanidinium hydrochloride solution were added and mixed. Plasma proteins were precipitated by the addition of 400 µl of ice cold ethanol (99.9% [v/v] EtOH, 0.1% [v/v] TFA) and incubated on ice for one hour. Precipitate was removed by centrifugation (9000 × g, 20 min, 4 °C) and the supernatant dried by centrifugal evaporation under vacuum. Dried samples were dissolved by sequentially adding 2 μl of DMSO and 18 μl of H2O containing 0.1% (v/v) CHOOH and analyzed by LC-MS. The samples were analyzed using an analytical C18 column (Phenomenex C18 Kinetex column, 50 × 2.1 mm, 2.6 µm, 100 Å) and a linear gradient of 5–30% solvent B (MeCN, 0.05% [v/v] CHOOH) in solvent A (H2O, 0.05% [v/v] CHOOH) in 4.5 min at a flow of 1 ml per min. The mass was measured on a single quadrupole mass spectrometer in positive ion mode using electrospray ionization. Peptides were quantified based on the absolute intensities of the detected mass peaks (M^3+ and M^4+).

CC(C)C[C@@H]1NC(=O)[C@H](CCC(N)=O)NC(=O)[C@H](Cc2c[nH]cn2)NC(=O)[C@@H]2CSCCC(=O)N3CN(CN(C3)C(=O)CCSC[C@H](NC(=O)[C@@H](CO)NC(=O)[C@H](N)CCCNC(=N)N)C(=O)N[C@@H](Cc3ccc(F)cc3)C(=O)N[C@@H](CCCNC(=N)N)C(=O)N[C@@H](CC(C)C)C(=O)N3CCC[C@H]3C(=O)N2)C(=O)CCSC[C@@H](C(N)=O)NC(=O)C[C@H](CCCNC(=N)N)NC1=O [FXII900] (H-[dR][dS]C[Phe(4-F)]RLPCHQL[β3hR]C-NH2; linker 3-8-13 via TATA)
Residual activity of FVIIa (factor VIIa; inhibitor 5000 nM, 5 µM): 109.299% | remaining activity at 5 µM (factor VIIa; inhibitor 5000 nM, read-out: Residual activity of FVIIa): 108% | Residual activity of FVIIa (factor VIIa; inhibitor 10000 nM, 10 µM): 109.026% | remaining activity at 10 µM (factor VIIa; inhibitor 10000 nM, read-out: Residual activity of FVIIa): 107% | Residual activity of FVIIa (factor VIIa; inhibitor 20000 nM, 20 µM): 101.426% | remaining activity at 20 µM (factor VIIa; inhibitor 20000 nM, read-out: Residual activity of FVIIa): 101% | Residual activity of FVIIa (factor VIIa; inhibitor 40000 nM (40 µM), 40 µM): 102.615% and 96.13% | remaining activity at 40 µM (factor VIIa; inhibitor 40000 nM (40 µM), read-out: Residual activity of FVIIa): 97.1% | Ki (factor VIIa; read-out: Ki FVIIa): > 40 µM | clearance ([1]; both sexes, Swiss large white, pig, plasma, intravenous, 4 mg kg^−1, read-out: clearance rate (CL)): 11.8 ± 1.8 mL/min/kg | Cmax ([1]; both sexes, Swiss large white, pig, plasma, intravenous, 4 mg kg^−1, read-out: maximal concentration): ~7000 nM | half-life ([1]; both sexes, Swiss large white, pig, plasma, intravenous, 4 mg kg^−1, read-out: t1/2 (t1/2 β)): 36 ± 5 min | Vd ([1]; both sexes, Swiss large white, pig, plasma, intravenous, 4 mg kg^−1, read-out: volume of distribution (VD)): 0.61 ± 0.14 L/kg | level at time molar at 4 min ([1]; both sexes, Swiss large white, pig, plasma, iv, 4 mg/kg, intravenous administration, 4 min, individual pigs and analyses, read-out: Plasma conc.): 7470 nM | level at time molar at […] ([1]; both sexes, Swiss large white, pig, plasma, iv, 4 mg/kg, intravenous administration, 15 min, individual pigs and analyses, read-out: Plasma conc.): 2710 nM | level at time molar at 16 min ([1]; both sexes, Swiss large white, pig, plasma, iv, 4 mg/kg, intravenous administration, 16 min, individual pigs and analyses, read-out: Plasma conc.): 3720 nM | level at time molar at 35 min ([1]; both sexes, Swiss large white, pig, plasma, iv, 4 mg/kg, intravenous administration, 35 min, individual pigs and analyses, read-out: Plasma conc.): 1290 nM | level at time molar at 0.6 h ([1]; both sexes, Swiss large white, pig, plasma, iv, 4 mg/kg, intravenous administration, 36 min, individual pigs and analyses, read-out: Plasma conc.): 1780 nM | level at time molar at 65 min ([1]; both sexes, Swiss large white, pig, plasma, iv, 4 mg/kg, intravenous administration, 65 min, individual pigs and analyses, read-out: Plasma conc.): 692 nM | level at time molar at 1.1 h ([1]; both sexes, Swiss large white, pig, plasma, iv, 4 mg/kg, intravenous administration, 66 min, individual pigs and analyses, read-out: Plasma conc.): 799 nM | level at time molar at 2 h ([1]; both sexes, Swiss large white, pig, plasma, iv, 4 mg/kg, intravenous administration, 120 min, individual pigs and analyses, read-out: Plasma conc.): 278 nM | Plasma conc. ([1]; intravenous administration, 4 min, individual pigs and analyses): 7458 nM and 7475 nM | Plasma conc. ([1]; intravenous administration, 35 min, individual pigs and analyses): 1282 nM
